pIC50: −log10 of the molar value. Values after ≈ are worked out from the molar mass of the structure shown. Values joined by “and” are separate entries in the source; they are usually repeats but may differ in a detail not shown here. Equal entries are not always repeated. Where two headings read alike, the source gives them in different places.
What was measured:
[1] = Aqueous thermodynamic solubility by HPLC; type: physicochemical; conditions: for solubility thermodynamic at 15 min / solubility at 15 min: thermodynamic from solid; for solubility thermodynamic at 15 min / Experimental S / solubility at 15 min: water; for solubility thermodynamic at 15 min: read-out: Experimental S
Method: The aqueous thermodynamic solubility of derivatives 1–7 were measured using a standard HPLC (High Performance Liquid Chromatography) procedure. Solubility is defined as the amount of substance that passes into solution in order to establish the equilibrium at constant temperature and pressure and, thus, produce a saturated solution. The water solubility (log S) and log P were calculated for comparison.
Intrinsic aqueous drug solubility was determined by forming a supersaturated solution of the drug compound in water. The suspension was sonicated for 15 min and centrifuged at 13,000 rpm for 6 min. After 15 min the supernatant was decanted and the total drug content solubilised was analysed using reverse phase HPLC. The solution was analysed using an Agilent 1260 Infinity/DAD (100–900 nm) (Waldbronn, Germany) with a Zorbax eclipse XDB ([…], 4.6 mm × 150 mm) (Waldbronn, Germany) column. The mobile phase comprised of 80:20 acetonitrile: H2O containing 45 mM ammonium formate buffered to pH 3.5 with formic acid. Flow rate was 1 mL/min with 5 μL injection volume.

[2] = In vitro drug release from polymer into PBS; type: physicochemical; conditions: 37 °C
Method: The formulation (1 mL) was pipetted inside dialysis tubing (MW cut off = 12–14 kDa) and dialysed against PBS in sink (100 mL, 0.2 M) at 37 °C with stirring. At various time points 1 mL of the external PBS was extracted and replaced with 1 mL of fresh PBS. The presence of drug in the collected PBS was determined using UV-VIS spectroscopy as before.

[3] = Drug loading into Ch5 polymer (UV-VIS); type: physicochemical; conditions: 6 mg/mL, 10:1 feed ratio
Method: The maximum compound solubilisation observed was 6 mg/mL at a 10:1 ratio, with 0.59 mg/mL drug encapsulation being achieved.
Polymer solutions of 1 mg/mL, 3 mg/mL, and 6 mg/mL were made up in deionised water and probe sonicated for 10 min to ensure aggregation of the self-assemblies was achieved. Compound 2 was added in 1:1, 5:1, and 10:1 initial drug: excipient weight ratios and the drug-polymer solutions were probe sonicated for a further 10 min to ensure maximum encapsulation was achieved. After cooling to room temperature, the solutions were filtered using 0.45 µm syringe filters (with prefilters) to ensure any excess un-encapsulated drugs were removed. Drug quantification was carried out using UV-VIS spectroscopy with the samples diluted in DMSO. Absorbance was measured at 304 nm. Calibration was run from 0.0039–0.0313 mg/mL with R^2 = 0.992 (see Supplementary Materials Figure S3 for the calibration plot).

HCT116 = test system: HCT116; parameters: method as in PMID 22698703, doi:10.1039/c3md00320e, PMID 26966420; conditions: cited from earlier work
[4] = test system: MDA-MB-231 (breast) human tumour cell line; parameters: method as in PMID 26966420; conditions: read-out: IC50, thymidine uptake assay; cited from earlier work
[5] = test system: human pancreatic adenocarcinoma (BxPC-3) cells; assay: MTT cytotoxicity assay; type: cell-based
Method: Finally the viability was measured with the MTT assay in human pancreatic adenocarcinoma (BxPC-3) cells using 2 with and without the polymer encapsulation; the results are shown in Figure 6.
An MTT assay was carried out using human pancreatic adenocarcinoma (BxPC-3) cells. Cells were cultured in RPMI medium containing 10% FBS and 1% penicillin streptomycin (Penstrep). […] The experiments were performed in triplicate (n = 3) using eight wells per plate for each data point. […] Polymeric self-assemblies were formed by probe sonicating the polymers in sterile water (5 mg/mL). The polymer stock solutions were diluted to 0.005 mg/mL with media. A drug stock solution (20 mg/mL) was prepared by diluting compound 2 in DMSO. The formulations were prepared by addition of compound 2 into 0.005 mg/mL polymer solution.

MDA-MB-231 = test system: MDA-MB-231; parameters: method as in PMID 22698703, doi:10.1039/c3md00320e, PMID 26966420; conditions: cited from earlier work
[6] = test system: NCI60 human tumour cell line panel; assay: NCI60 human tumour cell line panel growth inhibition (SRB); type: cell-based
Method: (§1) Thymidine uptake was used for viability testing on the MDA-MB-231 (breast) and HCT116 (colon) human tumour cell lines. This measurement reflects the anti-proliferative/cytotoxic effects of the compounds. A concentration of 1 μM was used. […] To corroborate these findings, derivatives 3, 4, and 6 were tested against the National Cancer Institute’s human tumour cell line panel (NCI60). […] The leukaemia cell lines K-562 (45.5% growth) and SR (47.7% growth) were the most affected followed by the melanoma MDA-MB-435 (53.9% growth) cell line. This is an interesting observation since the thieno[2,3-b]pyridines are often active against leukaemia cells and the MDA-MB-435 cell line, in particular.
(§2) Furthermore, derivatives 3, 4, and 6 were sent to the National Cancer Institute’s Developmental Therapeutic Program (DTP) where they were screened against a panel of sixty human tumour cell lines (NCI60, for further information see [18, 29, 30] and a complete description in the Supplementary Materials section).
(§3) Figure S3. Compound 2 UV-vis calibration in DMSO at 304 nm.
(§4) NCI's 60-cell line panel growth inhibition assay
The NCI's human 60-cell lines were grown in RPMI 1640 medium containing 5% FBS and 2mM L-glutamine. Cells were inoculated into 96-well plates at plating densities 5000–40 000 cells per well, based on the doubling time of individual cell lines. Plates were then incubated at 37 °C, 5% CO2, 95% air and 100% relative humidity for 24 h prior to addition of tested compounds. After 24 h, two plates of each cell line were fixed in situ with trichloroacetic acid (TCA), to represent a measurement of the cell population for each cell line at the time of tested compound addition. Tested compounds were solubilized in DMSO at a concentration 400 times that of the desired final maximum test concentration and stored frozen prior to use. An aliquot of each frozen tested concentrate was thawed and diluted to twice the desired final maximum test concentration with complete medium containing 50 μg mL-1 gentamicin. 100 μL aliquot of the tested drug diluted solution was added to appropriate wells containing 100 μL of medium, resulting in the required final drug doses. Following tested compound addition, plates were incubated for additional 48 h. The assay was terminated by the addition of cold TCA for adherent cells. Cells were fixed in situ by addition of 50 μL of cold 50% (w/v) TCA (final concentration, 10% TCA) and incubated for 60 min at 4 °C. The supernatant was discarded, and plates were washed 5 times with water and air dried. Sulforhodamine B (SRB) solution (100 μL), 0.4%(w/v) in 1% acetic acid was added to each well, and plates were incubated for 10 min at rt. […] The bound stain was subsequently solubilized with 10 mM Trizma base, and the absorbance was measured on a plate reader at 515 nm. […]

[7] = test system: MDA-MB-231 (breast) human tumour cell line; assay: Thymidine uptake cell proliferation assay; type: cell-based; conditions: 1 μM, untreated cells = 100% growth
Method: as §1
(§5) As described in detail previously cell proliferation was measured using a thymidine incorporation assay by seeding 3000 cells in each well using 96-well plates with varying concentrations of inhibitors for three days. Experiments were performed in triplicate with a minimum of two experimental repeats. Briefly, 0.04 µCi of ^3H-thymidine was added to each well and incubated for five hours, after which the cells were gathered onto glass fibre filters using an automated TomTec harvester. Filters were incubated with Betaplate Scint and thymidine incorporation determined with Trilux/Betaplate counter showing the percentage of cells incorporated with ^3H-thymidine into the DNA helix.

[8] = test system: HCT116 (colon) human tumour cell line; assay: Thymidine uptake cell proliferation assay; type: cell-based; conditions: 1 μM, untreated cells = 100% growth
Method: as §1, §5

[9] = test system: melanoma MDA-MB-435 cell line; assay: NCI60 panel growth inhibition (SRB); type: cell-based, human; conditions: MDA-MB-435, NCI60
Method: as §1, §2, §3, §4
(§6) The NCI's human 60-cell lines were grown in RPMI 1640 medium containing 5% FBS and 2mM L-glutamine. Cells were inoculated into 96-well plates at plating densities 5000–40 000 cells per well, based on the doubling time of individual cell lines. Plates were then incubated at 37 °C, 5% CO2, 95% air and 100% relative humidity for 24 h prior to addition of tested compounds. After 24 h, two plates of each cell line were fixed in situ with trichloroacetic acid (TCA), to represent a measurement of the cell population for each cell line at the time of tested compound addition. Tested compounds were solubilized in DMSO at a concentration 400 times that of the desired final maximum test concentration and stored frozen prior to use. […] The bound stain was subsequently solubilized with 10 mM Trizma base, and the absorbance was measured on a plate reader at 515 nm. […]

[10] = test system: leukaemia cell line K-562; assay: NCI60 panel growth inhibition (SRB); type: cell-based, human; conditions: K-562, NCI60
Method: as §1, §2, §3, §4, §6

leukaemia cell line SR = assay: NCI60 panel growth inhibition (SRB); type: cell-based, human
Method: as §1, §2, §3, §4, §6

[11] = HPLC, read-out: Experimental S, log S (converted)

solubility thermodynamic at 15 min ([1]; HPLC) [µg/mL] | solubility at 15 min [1, 11] [µM] | Compound | activity against NCI60 panel [6] | average relative growth, thymidine assay [7] [%] | average relative growth, thymidine assay [8] [%] | also measured
1.21 (≈ 3.59 µM) | 3.98 | Nc1c(C(=O)Nc2ccccc2)sc2nc3c(cc12)C(=O)CCC3 [Compound 1, 3-amino-5-oxo-N-phenyl-5,6,7,8-tetrahydrothieno[2,3-b]quinoline-2-carboxamide] | – | – | – | Experimental S ([1]; HPLC): 1.2 µg/mL
3.53 (≈ 9.15 µM) | 10 | Cc1c(Cl)cccc1NC(=O)c1sc2nc3c(cc2c1N)C(=O)CCC3 [Compound 2] | – | – | – | time to plateau of release from the polymer ensemble into the aqueous phase [2]: ~ 40 min; drug encapsulation (maximum) in Ch5 polymer [3]: 0.59 mg/mL; GI50 (HCT116): 67 nM; pIC50 [4]: 6.79; IC50 ([5]; BXPC-3, 24 h exposure, read-out: IC50, BxPC-3 viability (MTT)): 2.5 µg/mL and 6.48 µM; viability at 12.95 µM ([5]; BxPC-3, 5 μg/mL (12.95 μM), read-out: cell viability (activity remaining)): ~30%; GI50 (MDA-MB-231): 141 nM
– | 3160 | Nc1c(C(=O)Nc2ccccc2)n(CCCN2CCOCC2)c2nc3c(cc12)CCCC3 [Compound 3] | very modest or no activity | 99.5 | 90.3 | solubility increase as compared to 1 [1]: three orders of a magnitude; water solubility [1]: 1300 µg/mL (≈ 3000 µM); Experimental S ([1]; HPLC): 1339.8 µg/mL and 1336.7 µg/mL; solubility at 15 min ([1]; read-out: water solubility): ~1300 µg/mL
0.2 (≈ 0.471 µM) | 0.501 | Nc1c(C(=O)Nc2ccccc2)n(CCCc2ccccc2)c2nc3c(cc12)CCCC3 [Compound 4] | very modest or no activity | 105.4 | 103.6 | –
0.18 (≈ 0.486 µM) | 0.501 | Cn1c(C(=O)Nc2cccc3ccccc23)c(N)c2cc3c(nc21)CCCC3 [Compound 5] | – | 97.2 | 102.1 | –
0.76 (≈ 2.18 µM) | 2 | Cc1cccc(NC(=O)c2c(N)c3cc4c(nc3n2C)CCCC4)c1C [Compound 6] | very modest or no activity | 106.0 | 104.2 | overall relative growth for the 60 cell lines ([6]; untreated cells = 100% growth): 77%; growth [9]: 53.9%; growth [10]: 45.5%; growth (leukaemia cell line SR): 47.7%
0.61 (≈ 1.75 µM) | 1.58 | Cn1c(C(=O)Nc2ccccc2)c(N)c2cc3c(nc21)CCCCCC3 [Compound 7] | – | 100.7 | 99.0 | –

— article PMC6017400, “Investigation into Improving the Aqueous Solubility of the Thieno[2,3-b]pyridine Anti-Proliferative Agents” (Molecules : A Journal of Synthetic Chemistry and Natural …, 2018)
